Experiment [1] concerns DU145 (human prostate cancer cells). In words: MTT cancer cell growth inhibition. The settings on record: MTT, 72 hours incubation, read-out: GI50 Du1. It is filed as cell-based. A digest of the protocol:
(§1)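 Seed 1500 cells/well, incubate overnight. Add compound, 10^−5 to 10^−10 M final, n=3; culture 72 h, 37° C., 5% CO2. Add MTT, 4 h. Discard supernatant, dissolve in DMSO. Read 570 nm; calculate viability and GI50.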

The subject of experiment [2] is PANC-1 (Pac-1, human pancreatic cancer cells). In words: MTT cancer cell growth inhibition. It counts as cell-based. The settings on record: MTT, 72 hours incubation, read-out: GI50 PAN. A digest of the protocol:
as §1

Experiment [3] has as its system Huh-7 (human hepatoma cells). In words: MTT cancer cell growth inhibition. It counts as cell-based. The settings on record: MTT, 72 hours incubation, Huh-7 cells, read-out: GI50 Huh-7. A digest of the protocol: as §1
Experiment [4] has as its system H1975 (non-small cell lung adenocarcinoma). The experiment is described as follows: MTT cancer cell growth inhibition. It counts as cell-based. Conditions: MTT, 72 hours incubation, H1975 cells, read-out: GI50 H1975. A digest of the protocol: as §1
For experiment [5], the system named is A549 (human lung cancer cells). In words: MTT cancer cell growth inhibition. It is filed as cell-based. The settings on record: MTT, 72 hours incubation, read-out: GI50 A54. A digest of the protocol: as §1
For experiment [6], the system named is U937 (human leukemia cells). The experiment is described as follows: MTT cancer cell growth inhibition. It counts as cell-based. Conditions: MTT, 72 hours incubation, read-out: GI50 U93. A digest of the protocol: as §1
Experiment [7] deals with MOLT-4 (human acute lymphoblastic leukemia cells). The experiment is described as follows: MTT cancer cell growth inhibition. It counts as cell-based. The settings on record: MTT, 72 hours incubation, read-out: GI50 Mol. An outline of the steps:
as §1

Experiment [8] concerns HCC827 (human non-small cell lung cancer cells). The experiment is described as follows: MTT cancer cell growth inhibition. It counts as cell-based. Conditions: MTT, 72 hours incubation, HCC827 cells, read-out: GI50 HCC827. An outline of the steps:
as §1

For experiment [9], the system named is KBM-5 (human chronic myelogenous leukemia). In words: MTT cancer cell growth inhibition. It is filed as cell-based. Conditions: MTT, 72 hours incubation, KBM-5 cells, read-out: GI50 KBM-5. An outline of the steps:
as §1

For experiment [10], the system named is KBM5-T315I (human chronic myelogenous leukemia). In words: MTT cancer cell growth inhibition. It counts as cell-based. Conditions: MTT, 72 hours incubation, KBM5-T315I cells, read-out: GI50 KBM5-T315I. A digest of the protocol:
as §1

Experiment [11] concerns MDA-MB-231 (breast cancer cells). In words: MTT cancer cell growth inhibition. It counts as cell-based. An outline of the steps: as §1
Experiment [12] concerns BGC-823 (human gastric cancer cells). In words: MTT cancer cell growth inhibition. It counts as cell-based. Conditions: MTT, 72 hours incubation, read-out: GI50 BG. A digest of the protocol:
as §1

For experiment [13], the system named is lncap (prostate cancer cells). In words: MTT cancer cell growth inhibition. It counts as cell-based. Conditions: MTT, 72 hours incubation, read-out: GI50 lnca. An outline of the steps:
as §1

Experiment [14] relates to Hela (human cervical cancer cells). In words: MTT cancer cell growth inhibition. The settings on record: MTT, 72 hours incubation, read-out: GI50 Hela. It is filed as cell-based. A digest of the protocol:
as §1

For experiment [15], the system named is HT1080 (human fibrosarcoma cells). The experiment is described as follows: MTT cancer cell growth inhibition. It is filed as cell-based. Conditions: MTT, 72 hours incubation, read-out: GI50 HT1. A digest of the protocol: as §1
Experiment [16] deals with Bel-7402 (human hepatoma cells). The experiment is described as follows: MTT cancer cell growth inhibition. It counts as cell-based. The settings on record: MTT, 72 hours incubation, Bel-7402 cells, read-out: GI50 Bel-7402. An outline of the steps: as §1
For experiment [17], the system named is N-87 (human gastric cancer cells). The experiment is described as follows: MTT cancer cell growth inhibition. It counts as cell-based. The settings on record: MTT, 72 hours incubation, N-87 cells, read-out: GI50 N-87. An outline of the steps:
as §1

Experiment [18] has as its system MCF-7 (human breast cancer cells). The experiment is described as follows: MTT cancer cell growth inhibition. Conditions: 72 hours incubation, read-out: GI50 MCF. It counts as cell-based. An outline of the steps: as §1
For experiment [19], the system named is SGC-7901 (human gastric cancer cells). In words: MTT cancer cell growth inhibition. The settings on record: MTT, 72 hours incubation, SGC-7901 cells, read-out: GI50 SGC-7901. It is filed as cell-based. A digest of the protocol:
as §1

The subject of experiment [20] is K562 (human leukemia cells). The experiment is described as follows: MTT cancer cell growth inhibition. It is filed as cell-based. The settings on record: MTT, 72 hours incubation, K562 cells, read-out: GI50 K562. A digest of the protocol:
as §1

The target of another experiment is T1, HDAC7 (Homo sapiens, UniProt Q8WUI4).
T1 sequence (Q8WUI4 1-952): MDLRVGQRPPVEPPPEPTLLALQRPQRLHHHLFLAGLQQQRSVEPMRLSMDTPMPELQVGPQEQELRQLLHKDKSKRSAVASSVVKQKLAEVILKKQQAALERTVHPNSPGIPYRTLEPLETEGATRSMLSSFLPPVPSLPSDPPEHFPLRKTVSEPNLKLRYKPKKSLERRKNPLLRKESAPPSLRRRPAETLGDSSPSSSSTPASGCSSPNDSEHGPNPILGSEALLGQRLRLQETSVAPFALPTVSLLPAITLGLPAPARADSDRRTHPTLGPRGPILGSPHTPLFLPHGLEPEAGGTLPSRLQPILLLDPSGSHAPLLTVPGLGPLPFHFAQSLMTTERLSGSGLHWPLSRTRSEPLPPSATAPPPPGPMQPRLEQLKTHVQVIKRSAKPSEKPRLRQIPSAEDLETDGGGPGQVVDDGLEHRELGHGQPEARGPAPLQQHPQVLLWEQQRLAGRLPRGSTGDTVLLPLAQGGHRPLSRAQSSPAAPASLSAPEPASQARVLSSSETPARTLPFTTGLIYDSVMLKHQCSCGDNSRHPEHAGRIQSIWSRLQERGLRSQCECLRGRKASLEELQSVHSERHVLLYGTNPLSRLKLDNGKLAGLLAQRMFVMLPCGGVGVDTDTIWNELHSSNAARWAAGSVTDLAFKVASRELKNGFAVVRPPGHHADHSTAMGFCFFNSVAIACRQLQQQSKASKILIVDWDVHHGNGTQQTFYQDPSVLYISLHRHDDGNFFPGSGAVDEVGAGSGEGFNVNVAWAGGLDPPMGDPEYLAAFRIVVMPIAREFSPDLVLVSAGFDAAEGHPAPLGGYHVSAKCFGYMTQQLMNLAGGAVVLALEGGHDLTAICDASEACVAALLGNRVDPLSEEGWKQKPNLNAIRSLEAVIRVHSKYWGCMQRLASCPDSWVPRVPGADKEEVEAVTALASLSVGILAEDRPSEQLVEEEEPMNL
In words: HDAC biochemical activity measurement (fluorescent substrate deacetylation).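 Also: fluorogenic deacetylation assay using acetyl-lysine substrate at 20 µM, enzyme and compound incubated 30 min at 37 °C, then developer added, fluorescence read at 360/460 nm.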 Conditions: HDAC7; 37° C. 30 minutes.

Where [21] appears, read: Homo sapiens, MDA-MB-231, 72 h, read-out: GI50 MDA-MB-231, MTT, 72 hours incubation, MDA-MB-231 cells.

Where two headings read alike, the source gives them in different places.

As to `C/C=C1\NC(=O)c2cc(SC)cc(n2)CNC(=O)C[C@@H](/C=C/CCSC(C)=O)OC(=O)[C@H](C)NC1=O` [Compound 214], the GI50 was 40 nM in [1] (DU145 cells); 40 nM in experiment [2] (PANC-1 cells); 41 nM in experiment [3]; 63 nM in experiment [4]; 90 nM in experiment [5] (A549 cells); 50 nM in [6] (U937 cells). In addition, the GI50 in experiment [7] (MOLT-4 cells) stood at 50 nM; in experiment [8] it was 35 nM; in [9], 19 nM; in experiment [10], 73 nM; in experiment [11] (read-out: GI50 MDA-MB-231, MTT, 72 hours incubation, MDA-MB-231 cells), 15 nM; in [12] (BGC-823 cells) it was 20 nM. Also, the GI50 was determined as 110 nM in experiment [13] (lncap cells); 60 nM in experiment [14] (Hela cells); 40 nM in experiment [15] (HT1080 cells); 71 nM in [16]; 95 nM in [17]; 50 nM in experiment [18] (MCF-7 cells). Besides, the GI50 in experiment [19] is 68 nM; in experiment [20], 71 nM. Moreover, on HDAC7, the “IC50 HDAC7” value was “no activity”.
Turning to `C/C=C1\NC(=O)c2cc(F)cc(n2)CNC(=O)C[C@@H](/C=C/CCSC(=O)CCCCCCC)OC(=O)[C@H](C(C)C)NC1=O` [Example 31], the GI50 stood at 20 nM in experiment [1] (Homo sapiens, DU-145, 72 h); 50 nM in [2] (Homo sapiens, PANC-1, 72 h); 19 nM in experiment [3] (Homo sapiens, Huh-7, 72 h); 42 nM in experiment [4] (Homo sapiens, NCI-H1975, 72 h); 70 nM in [5] (Homo sapiens, A549, 72 h); 40 nM in experiment [6] (Homo sapiens, U-937, 72 h). Besides, the GI50 in experiment [7] (Homo sapiens, MOLT-4, 72 h) came out at 10 nM; in experiment [8] (Homo sapiens, HCC827, 72 h) it was 57 nM; in [9] (Homo sapiens, KBM5, 72 h), 92 nM; in [10] (Homo sapiens, 72 h), 63 nM; in [11] (setting [21]), 19 nM; in experiment [12] (Homo sapiens, BGC-823, 72 h) it was 50 nM. Also, the GI50 in [13] (Homo sapiens, LNCaP, 72 h) was 10 nM; in [14] (Homo sapiens, HeLa, 72 h) it was 90 nM; in experiment [15] (Homo sapiens, HT-1080, 72 h), 50 nM; in experiment [16] (Homo sapiens, Bel-7402, 72 h), 57 nM; in experiment [17] (Homo sapiens, 72 h), 52 nM; in experiment [18] (Homo sapiens, MCF7, 72 h), 60 nM. Besides, the GI50 in [19] (Homo sapiens, SGC-7901, 72 h) was 77 nM; in experiment [20] (Homo sapiens, K562, 72 h), 27 nM. Further, the “IC50 HDAC7” value on HDAC7 was “no activity”.
In the case of `C/C=C1\NC(=O)c2ccc(F)c(n2)CNC(=O)C[C@@H](/C=C/CCS)OC(=O)[C@H](CCCCN)NC1=O` [Compound 118], the GI50 in experiment [1] (Homo sapiens, DU-145, 72 h) is 40 nM; in [2] (Homo sapiens, PANC-1, 72 h) it was 80 nM; in [3] (Homo sapiens, Huh-7, 72 h) it was 41 nM; in experiment [4] (Homo sapiens, NCI-H1975, 72 h), 35 nM; in experiment [5] (Homo sapiens, A549, 72 h) it was 30 nM; in experiment [6] (Homo sapiens, U-937, 72 h), 30 nM. The GI50 in experiment [7] (Homo sapiens, MOLT-4, 72 h) worked out at 20 nM; in experiment [8] (Homo sapiens, HCC827, 72 h) it was 53 nM; in experiment [9] (Homo sapiens, KBM5, 72 h), 41 nM; in experiment [10] (Homo sapiens, 72 h), 57 nM; in experiment [11] (setting [21]) it was 31 nM; in experiment [12] (Homo sapiens, BGC-823, 72 h) it was 60 nM. Further, the GI50 is 20 nM in experiment [13] (Homo sapiens, LNCaP, 72 h); 70 nM in experiment [14] (Homo sapiens, HeLa, 72 h); 80 nM in [15] (Homo sapiens, HT-1080, 72 h); 27 nM in [16] (Homo sapiens, Bel-7402, 72 h); 61 nM in experiment [17] (Homo sapiens, 72 h); 60 nM in experiment [18] (Homo sapiens, MCF7, 72 h). Besides, the GI50 in experiment [19] (Homo sapiens, SGC-7901, 72 h) stood at 39 nM; in [20] (Homo sapiens, K562, 72 h) it was 29 nM. In addition, the “IC50 HDAC7” value at HDAC7 was “no activity”.

A word on the GI50: it is the concentration giving 50% growth inhibition.

These data come from US10065990B2, “Cyclic peptide compound, and preparation method, pharmaceutical composition and use thereof” (HANGZHOU GUANYU BIO-MEDICAL CO., LTD, priority 2013, dated 2018).
